Measurements as given in PubChem BioAssay AID1259407 (Chemical Carcinogenesis Research Information System (CCRIS), 2018).
Activity calls are given as the source filed them. How the calls were made is not given here.

System: CCRIS mutagenicity, Ames/micronucleus/aberration tests
Experiment: CCRIS mutagenicity studies

Measured: mutagenic call

CCOC(C)=O
inactive: End Point: IN VITRO CHROMOSOMAL ABERRATIONS, Test System: CHO-LB CELLS, Metabolic Activation: NONE inactive; negative | End Point: IN VITRO CHROMOSOMAL ABERRATIONS, Test System: CHO-LB CELLS, Metabolic Activation: RAT, LIVER, S-9, AROCLOR 1254 inactive; negative | End Point: IN VIVO MICRONUCLEUS, Test System: BONE MARROW POLYCHROMATIC ERYTHROCYTES, Species: MOUSE, Strain/Sex: DDY/MALE, Route: IP inactive; negative | Test System: AMES SALMONELLA TYPHIMURIUM, Strain/Indicator: TA97, Metabolic Activation: HAMSTER, LIVER, S-9, AROCLOR 1254 (10 OR 30%), Method: PREINCUBATION inactive; negative | Test System: AMES SALMONELLA TYPHIMURIUM, Strain/Indicator: TA97, Metabolic Activation: NONE, Method: PREINCUBATION inactive; negative | Test System: AMES SALMONELLA TYPHIMURIUM, Strain/Indicator: TA97, Metabolic Activation: RAT, LIVER, S-9, AROCLOR 1254 (10 OR 30%), Method: PREINCUBATION inactive; negative | Test System: AMES SALMONELLA TYPHIMURIUM, Strain/Indicator: TA98, Metabolic Activation: HAMSTER, LIVER, S-9, AROCLOR 1254 (10 OR 30%), Method: PREINCUBATION inactive; negative | Test System: AMES SALMONELLA TYPHIMURIUM, Strain/Indicator: TA98, Metabolic Activation: NONE, Method: PREINCUBATION inactive; negative | Test System: AMES SALMONELLA TYPHIMURIUM, Strain/Indicator: TA98, Metabolic Activation: RAT, LIVER, S-9, AROCLOR 1254 (10 OR 30%), Method: PREINCUBATION inactive; negative | Test System: AMES SALMONELLA TYPHIMURIUM, Strain/Indicator: TA98, Metabolic Activation: RAT, LIVER, S-9, PHENOBARBITAL AND BETA-NAPHTHOFLAVONE, Method: PREINCUBATION inactive; negative | Test System: AMES SALMONELLA TYPHIMURIUM, Strain/Indicator: TA100, Metabolic Activation: HAMSTER, LIVER, S-9, AROCLOR 1254 (10 OR 30%), Method: PREINCUBATION inactive; negative | Test System: AMES SALMONELLA TYPHIMURIUM, Strain/Indicator: TA100, Metabolic Activation: NONE, Method: PREINCUBATION inactive; negative | Test System: AMES SALMONELLA TYPHIMURIUM, Strain/Indicator: TA100, Metabolic Activation: RAT, LIVER, S-9, AROCLOR 1254 (10 OR 30%), Method: PREINCUBATION inactive; negative | Test System: AMES SALMONELLA TYPHIMURIUM, Strain/Indicator: TA100, Metabolic Activation: RAT, LIVER, S-9, PHENOBARBITAL AND BETA-NAPHTHOFLAVONE, Method: PREINCUBATION inactive; negative | Test System: AMES SALMONELLA TYPHIMURIUM, Strain/Indicator: TA102, Metabolic Activation: NONE, Method: PREINCUBATION inactive; negative | Test System: AMES SALMONELLA TYPHIMURIUM, Strain/Indicator: TA102, Metabolic Activation: RAT, LIVER, S-9, PHENOBARBITAL AND BETA-NAPHTHOFLAVONE, Method: PREINCUBATION inactive; negative | Test System: AMES SALMONELLA TYPHIMURIUM, Strain/Indicator: TA104, Metabolic Activation: NONE, Method: PREINCUBATION inactive; negative | Test System: AMES SALMONELLA TYPHIMURIUM, Strain/Indicator: TA104, Metabolic Activation: RAT, LIVER, S-9, PHENOBARBITAL AND BETA-NAPHTHOFLAVONE, Method: PREINCUBATION inactive; negative | Test System: AMES SALMONELLA TYPHIMURIUM, Strain/Indicator: TA1535, Metabolic Activation: HAMSTER, LIVER, S-9, AROCLOR 1254 (10 OR 30%), Method: PREINCUBATION inactive; negative | Test System: AMES SALMONELLA TYPHIMURIUM, Strain/Indicator: TA1535, Metabolic Activation: NONE, Method: PREINCUBATION inactive; negative | Test System: AMES SALMONELLA TYPHIMURIUM, Strain/Indicator: TA1535, Metabolic Activation: RAT, LIVER, S-9, AROCLOR 1254 (10 OR 30%), Method: PREINCUBATION inactive; negative | Test System: AMES SALMONELLA TYPHIMURIUM, Strain/Indicator: TA1535, Metabolic Activation: RAT, LIVER, S-9, PHENOBARBITAL AND BETA-NAPHTHOFLAVONE, Method: PREINCUBATION inactive; negative | Test System: AMES SALMONELLA TYPHIMURIUM, Strain/Indicator: TA1537, Metabolic Activation: HAMSTER, LIVER, S-9, AROCLOR 1254 (30%), Method: PREINCUBATION inactive; negative | Test System: AMES SALMONELLA TYPHIMURIUM, Strain/Indicator: TA1537, Metabolic Activation: NONE, Method: PREINCUBATION inactive; negative | Test System: AMES SALMONELLA TYPHIMURIUM, Strain/Indicator: TA1537, Metabolic Activation: RAT, LIVER, S-9, AROCLOR 1254 (30%), Method: PREINCUBATION inactive; negative | Test System: AMES SALMONELLA TYPHIMURIUM, Strain/Indicator: TA1537, Metabolic Activation: RAT, LIVER, S-9, PHENOBARBITAL AND BETA-NAPHTHOFLAVONE, Method: PREINCUBATION inactive; negative | Test System: E. COLI, Strain/Indicator: WP2UVRA/PKM101, Metabolic Activation: NONE, Method: PREINCUBATION inactive; negative | Test System: E. COLI, Strain/Indicator: WP2UVRA/PKM101, Metabolic Activation: RAT, LIVER, S-9, PHENOBARBITAL AND BETA-NAPHTHOFLAVONE, Method: PREINCUBATION inactive; negative | Test System: E. COLI, Strain/Indicator: WP2UVRA, Metabolic Activation: NONE, Method: PREINCUBATION inactive; negative | Test System: E. COLI, Strain/Indicator: WP2UVRA, Metabolic Activation: RAT, LIVER, S-9, PHENOBARBITAL AND BETA-NAPHTHOFLAVONE, Method: PREINCUBATION inactive; negative
